4 compounds from US20240351997A1, “NOVEL PARP7 INHIBITOR AND USE THEREOF” (SHANGHAI QILU PHARMACEUTICAL RESEARCH AND DEVELOPMENT …, priority 2021, published 2024) can be followed below.

The nature of data set [1]: In vivo pharmacokinetic assay in rats (intravenous injection and oral administration). The conditions noted are these: SD rats; for AUC / clearance / half-life / Vd / Cmax: male, rat, plasma; for Vd: read-out: Vss. The text has this: (§1) III. In Vivo Pharmacokinetic Assay in Mice and Rats
(§2) The pharmacokinetic behavior of the compound of the present disclosure in plasma after a single intravenous injection and oral administration was studied using male C57BL/6 mice or SD male rats as experimental animals.
(§3) Healthy adult C57BL/6 mice or SD rats (3 mice or rats per group), male, supplied by Shanghai Jihui Laboratory Animal Care Co., Ltd. and Vital River Laboratory Animal Technology Co., Ltd.
(§4) Both the intravenous injection and oral administration groups consisted of 3 mice or rats. The intravenous injection was at a dose of 1 mg/kg and in a volume of 5 mL/kg; the oral administration was at a dose of 5 mg/kg and in a volume of 10 mL/kg. The vehicle for administration was 5% DMSO/5% Kolliphor HS 15/90% Saline.
(§5) 2.3 Experimental Equipment
(§6) The centrifuge was purchased from Eppendorf, and the pipette was purchased from Eppendorf.
(§7) After the animals were administered, 0.02 mL of blood was collected from the vein at 0.0833 (IV), 0.25, 0.5, 1, 2, 4, 8, and 24 hours, respectively, placed in an EDTA-K2 test tube, centrifuged at 4600 rpm for 5 minutes at 4° C. to separate the plasma, and stored at −80° C.
(§8) 1) 10 μL of plasma sample was precipitated by adding 200 μL of acetonitrile, vortexed to mix, and centrifuged for 15 minutes.
(§9) 2) The treated supernatant was diluted with water, and the concentration of the test compound was analyzed by LC/MS/MS.
(§10) • Liquid phase conditions: Shimadzu LC-30AD • Mass spectrometry conditions: AB Sciex API 5500 • Chromatographic column: Phenomenex Kinetex 2.6 μm C18 • Mobile phases: A: 5 mM ammonium acetate aqueous solution (containing 0.05% formic acid); B: acetonitrile (containing 0.1% formic acid); flow rate: 0.5 mL/min
(§11) 3. Experimental Results and Analysis
(§12) Pharmacokinetic parameters were calculated using WinNonlin 8.0, and the pharmacokinetic parameters for intravenous injection and oral administration in mice or rats are shown in Table 2 and Table 3 below: […]

Data set [2] in a line: In vivo pharmacokinetic assay in mice (intravenous injection and oral administration). To be noted: C57BL/6 mice; for AUC / clearance / half-life / Vd / Cmax: male, mouse, plasma; for Vd: read-out: Vss.
From the text: as §1, §2, §3, §4, §5, §6, §7, §8, §9, §10, §11, §12

In data set [3] the target is PARP7 (Homo sapiens (Human), UniProt Q7Z3E1). As to the kind of experiment: In vitro enzymology experiment of PARP7 (enzymatic inhibition). It is filed as biochemical. A digest of the protocol: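 Histone-coated plate ADP-ribosylation format: compound preincubated 10 min at room temperature with preincubated (25 °C, 10 min) enzyme mixture; incorporated biotin detected by streptavidin-HRP and QuantaRed fluorescence (Ex550/Em620).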
Sequence of PARP7 (Q7Z3E1 whole entry): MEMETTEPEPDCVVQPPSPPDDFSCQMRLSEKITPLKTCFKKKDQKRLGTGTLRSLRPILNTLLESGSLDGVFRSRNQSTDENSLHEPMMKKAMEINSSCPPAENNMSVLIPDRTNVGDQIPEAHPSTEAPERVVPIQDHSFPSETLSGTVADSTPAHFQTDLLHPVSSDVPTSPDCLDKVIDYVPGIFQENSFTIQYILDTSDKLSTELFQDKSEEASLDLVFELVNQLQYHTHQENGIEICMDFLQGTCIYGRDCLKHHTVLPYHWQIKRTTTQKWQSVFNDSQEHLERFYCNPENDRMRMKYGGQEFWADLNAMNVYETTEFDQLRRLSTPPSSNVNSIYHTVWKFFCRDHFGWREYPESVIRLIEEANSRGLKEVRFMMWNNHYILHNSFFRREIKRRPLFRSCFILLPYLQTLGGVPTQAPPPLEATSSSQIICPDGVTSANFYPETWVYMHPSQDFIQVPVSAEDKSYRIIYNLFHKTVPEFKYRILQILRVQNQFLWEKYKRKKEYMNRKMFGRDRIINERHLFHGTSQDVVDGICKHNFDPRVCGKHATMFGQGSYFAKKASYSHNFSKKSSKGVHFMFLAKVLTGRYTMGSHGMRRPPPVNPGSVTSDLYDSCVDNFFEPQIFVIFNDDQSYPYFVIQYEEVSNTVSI

As for `C[C@@H]1CN(c2ncc(C(F)(F)F)cn2)CCN1C(=O)OCCc1c[nH]c(=O)c(C(F)(F)F)c1` [Example 109, 2-(6-Oxo-5-(trifluoromethyl)-1,6-dihydropyridin-3-yl)ethyl (R)-2-methyl-4-(5-(trifluoromethyl)pyrimidin-2-yl)piperazine-1-carboxylate], in data set [1] (oral administration, 5 mg/kg), the F came to 99%, the AUC is 5380 ng·h/mL and the Cmax was found to be 1310 ng/mL. Further, in data set [1] (intravenous injection, 1 mg/kg), the AUC was 1060 ng·h/mL, the clearance is 15 mL/min/kg, the half-life is 2.3 h and the Vd was determined as 2.1 L/kg. In data set [2] (oral administration, 5 mg/kg), this compound displayed an F of 72%, an area under the curve (AUC) of 29600 ng·h/mL and a Cmax of 8490 ng/mL. Moreover, in data set [2] (intravenous injection, 1 mg/kg), the AUC was 8100 ng·h/mL, the clearance is 1.67 mL/min/kg, the half-life was 6.3 h and the Vd was 0.6 L/kg. The same compound gave an IC50 in data set [3] of 0.38 nM.
`C[C@@H](Cc1c[nH]c(=O)c(C(F)(F)F)c1)OC(=O)N1CCN(c2ncc(C(F)(F)F)cn2)CC1` (single isomer, unassigned) [Example 35]: in data set [1] (oral administration, 5 mg/kg), the F is given as 35%, the AUC was found to be 1060 ng·h/mL and the peak level (Cmax) was 434 ng/mL. In addition, in data set [1] (intravenous injection, 1 mg/kg), the area under the curve (AUC) was 633 ng·h/mL, the clearance is 28.3 mL/min/kg, the half-life was 3.5 h and the Vd stood at 3.3 L/kg. In data set [2] (oral administration, 5 mg/kg), the F is given as 52%, the area under the curve (AUC) is 6760 ng·h/mL and the highest concentration (Cmax) was found to be 3750 ng/mL. In data set [2] (intravenous injection, 1 mg/kg), the area under the curve (AUC) amounted to 2570 ng·h/mL, the clearance was 6.67 mL/min/kg, the half-life was 4.2 h and the Vd is 1.5 L/kg. Further, the IC50 in data set [3] was 0.53 nM.
In data set [1] (oral administration, 5 mg/kg), `O=C(OCCc1c[nH]c(=O)c(C(F)(F)F)c1)N1CCN(c2ncc(C(F)(F)F)cn2)CC1` [Example 3, 2-(6-Oxo-5-(trifluoromethyl)-1,6-dihydropyridin-3-yl)ethyl 4-(5-(trifluoromethyl)pyrimidin-2-yl)piperazine-1-carboxylate] displayed an F of 47%, an AUC of 13800 ng·h/mL and a Cmax of 2350 ng/mL. Also, in data set [1] (intravenous injection, 1 mg/kg), the area under the curve (AUC) was found to be 5740 ng·h/mL, the clearance was 3.33 mL/min/kg, the half-life was 4.7 h and the Vd amounted to 0.9 L/kg. For the same compound, in data set [2] (oral administration, 5 mg/kg), the F turned out to be 80%, the AUC amounted to 42200 ng·h/mL and the peak level (Cmax) was 9310 ng/mL. In data set [2] (intravenous injection, 1 mg/kg), the AUC is 10400 ng·h/mL, the clearance was 1.5 mL/min/kg, the half-life is 6.1 h and the Vd is 0.6 L/kg. In addition, half-maximal inhibition in data set [3] (IC50) was put at 1.8 nM.
In data set [1] (oral administration, 5 mg/kg), `C[C@@H](Cc1c[nH]c(=O)c(C(F)(F)F)c1)OC(=O)N1CCN(c2ncc(C(F)(F)F)cn2)[C@@H](C)C1` [Example 93, (S)-1-(6-Oxo-5-(trifluoromethyl)-1,6-dihydropyridin-3-yl)propan-2-yl (S)-3-methyl-4-(5-(trifluoromethyl)pyrimidin-2-yl)piperazine-1-carboxylate] gave an F of 77%, an AUC of 3830 ng·h/mL and a Cmax of 809 ng/mL. In data set [1] (intravenous injection, 1 mg/kg), the AUC worked out at 978 ng·h/mL, the clearance was 16.7 mL/min/kg, the half-life is 1.9 h and the Vd is 1.9 L/kg. In data set [3], this compound registered a concentration for half-maximal inhibition (IC50) of 0.78 nM.

Usually AUC stands for the area under the concentration-time curve, a measure of exposure. The low end stands for low exposure, the high end for high exposure. For orientation: half-life means the time needed for the level to fall by half in the phase considered. Low readings indicate fast loss, high ones slow loss. As a reminder, the Cmax is the maximum level reached in the sampled fluid or tissue. As a reminder, the IC50 is the concentration at which inhibition is half-maximal. A lower IC50 goes with greater potency in that assay.
